Test results taken from patent US9745320B2, “Five-and-six-membered heterocyclic compound, and preparation method, pharmaceutical composition and use thereof” (SHANGHAI CHEMEXPLORER CO., LTD., priority 2013, dated 2017).

Legend:
Assay type in all cases: biochemical
[1] = target: JAK2 (Homo sapiens, UniProt O60674); assay: JAK 2 enzymatic inhibitory activity IC50 assay (Caliper conversion rate); conditions: Km ATP, 28° C., 1 hour
Procedure: (§1) Biological effect: intracytoplasmic JAK 1,2,3 enzymatic inhibitory activity IC50 assay
(§2) JAK1 buffer solution: 25 mM HEPES, pH 7.5, 0.01% Brij-35, 0.01 M Triton. JAK2,3 buffer solution: 50 mM HEPES, pH 7.5, 0.0015% Brij-35.
(§3) 2. Compound was formulated in 100% DMSO in a concentration gradient, deposited to a 384-well plate with a final concentration of 2% of DMSO.
(§4) 3. JAK2,3 enzymes were diluted to having an optimum concentration with the following buffer: 50 mM HEPES, pH 7.5, 0.0015% Brij-35, 2 mM DTT. JAK1 enzyme was diluted to having an optimum concentration with the following buffer: 25 mM HEPES, pH 7.5, 0.01% Brij-35, 2 mM DTT, 0.01M Triton. Then they were transferred to a 384-well plate and incubated with the compound for a certain time.
(§5) 4. JAK2,3 substrate was diluted to having an optimum concentration with the following buffer: 50 mM HEPES, pH 7.5, 0.0015% Brij-35, 10 mM MgCl2, Km adenosine triphosphate. JAK1 substrate was diluted to having an optimum concentration with the following buffer: 25 mM HEPES, pH 7.5, 0.01% Brij-35, 10 mM MgCl2, 0.01 M Triton. Km adenosine triphosphate was added into 384-well plates to initiate reactions, and the reaction were carried out at 28° C. for 1 hour.
(§6) 5. Read the conversion rate by Caliper Reader, and the inhibition rate are calculated according to the average of two tests.

[2] = target: T1, JAK3 (Homo sapiens, UniProt P52333); assay: JAK 3 enzymatic inhibitory activity IC50 assay (Caliper conversion rate); conditions: Km ATP, 28° C., 1 hour; read-out: JAK 3 enzymatic inhibitory activity IC50
T1 sequence (P52333 1-1124): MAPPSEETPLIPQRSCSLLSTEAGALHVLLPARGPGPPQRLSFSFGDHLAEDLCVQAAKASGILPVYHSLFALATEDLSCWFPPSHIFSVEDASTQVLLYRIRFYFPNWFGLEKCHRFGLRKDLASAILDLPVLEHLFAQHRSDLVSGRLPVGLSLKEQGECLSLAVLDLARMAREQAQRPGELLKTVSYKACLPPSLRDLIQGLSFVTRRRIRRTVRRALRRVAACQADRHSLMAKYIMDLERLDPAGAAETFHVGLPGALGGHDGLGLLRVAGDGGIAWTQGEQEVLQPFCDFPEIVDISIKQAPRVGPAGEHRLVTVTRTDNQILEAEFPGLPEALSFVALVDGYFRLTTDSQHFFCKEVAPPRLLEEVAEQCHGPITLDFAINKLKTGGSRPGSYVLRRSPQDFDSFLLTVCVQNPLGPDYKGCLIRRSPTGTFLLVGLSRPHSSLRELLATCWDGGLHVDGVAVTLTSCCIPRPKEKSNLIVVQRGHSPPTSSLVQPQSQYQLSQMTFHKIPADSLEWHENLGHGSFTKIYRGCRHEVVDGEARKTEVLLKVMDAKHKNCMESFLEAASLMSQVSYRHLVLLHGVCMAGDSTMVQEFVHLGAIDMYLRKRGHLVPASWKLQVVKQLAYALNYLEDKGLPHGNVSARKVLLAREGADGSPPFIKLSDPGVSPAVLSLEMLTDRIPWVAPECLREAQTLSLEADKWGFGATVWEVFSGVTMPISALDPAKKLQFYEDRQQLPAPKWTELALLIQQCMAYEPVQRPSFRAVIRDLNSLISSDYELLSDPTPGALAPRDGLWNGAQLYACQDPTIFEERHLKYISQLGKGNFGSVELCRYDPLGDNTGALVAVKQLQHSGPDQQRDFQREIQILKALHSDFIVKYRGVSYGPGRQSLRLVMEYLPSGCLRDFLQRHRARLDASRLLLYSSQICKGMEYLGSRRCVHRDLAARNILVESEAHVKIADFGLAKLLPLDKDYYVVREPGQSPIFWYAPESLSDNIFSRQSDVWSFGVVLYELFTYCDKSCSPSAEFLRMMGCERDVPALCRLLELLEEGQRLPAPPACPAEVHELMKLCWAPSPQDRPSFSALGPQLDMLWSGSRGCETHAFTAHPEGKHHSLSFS
Procedure: as §1, §2, §3
as §4, with “time. […]” for “time.”
as §6

[3] = target: JAK1 (Homo sapiens, UniProt P23458); assay: JAK 1 enzymatic inhibitory activity IC50 assay (Caliper conversion rate); conditions: Km ATP, 28° C., 1 hour
Procedure: as §1, §2, §3, §4, §5, §6

Chain of JAK2 (O60674 whole entry, species assumed): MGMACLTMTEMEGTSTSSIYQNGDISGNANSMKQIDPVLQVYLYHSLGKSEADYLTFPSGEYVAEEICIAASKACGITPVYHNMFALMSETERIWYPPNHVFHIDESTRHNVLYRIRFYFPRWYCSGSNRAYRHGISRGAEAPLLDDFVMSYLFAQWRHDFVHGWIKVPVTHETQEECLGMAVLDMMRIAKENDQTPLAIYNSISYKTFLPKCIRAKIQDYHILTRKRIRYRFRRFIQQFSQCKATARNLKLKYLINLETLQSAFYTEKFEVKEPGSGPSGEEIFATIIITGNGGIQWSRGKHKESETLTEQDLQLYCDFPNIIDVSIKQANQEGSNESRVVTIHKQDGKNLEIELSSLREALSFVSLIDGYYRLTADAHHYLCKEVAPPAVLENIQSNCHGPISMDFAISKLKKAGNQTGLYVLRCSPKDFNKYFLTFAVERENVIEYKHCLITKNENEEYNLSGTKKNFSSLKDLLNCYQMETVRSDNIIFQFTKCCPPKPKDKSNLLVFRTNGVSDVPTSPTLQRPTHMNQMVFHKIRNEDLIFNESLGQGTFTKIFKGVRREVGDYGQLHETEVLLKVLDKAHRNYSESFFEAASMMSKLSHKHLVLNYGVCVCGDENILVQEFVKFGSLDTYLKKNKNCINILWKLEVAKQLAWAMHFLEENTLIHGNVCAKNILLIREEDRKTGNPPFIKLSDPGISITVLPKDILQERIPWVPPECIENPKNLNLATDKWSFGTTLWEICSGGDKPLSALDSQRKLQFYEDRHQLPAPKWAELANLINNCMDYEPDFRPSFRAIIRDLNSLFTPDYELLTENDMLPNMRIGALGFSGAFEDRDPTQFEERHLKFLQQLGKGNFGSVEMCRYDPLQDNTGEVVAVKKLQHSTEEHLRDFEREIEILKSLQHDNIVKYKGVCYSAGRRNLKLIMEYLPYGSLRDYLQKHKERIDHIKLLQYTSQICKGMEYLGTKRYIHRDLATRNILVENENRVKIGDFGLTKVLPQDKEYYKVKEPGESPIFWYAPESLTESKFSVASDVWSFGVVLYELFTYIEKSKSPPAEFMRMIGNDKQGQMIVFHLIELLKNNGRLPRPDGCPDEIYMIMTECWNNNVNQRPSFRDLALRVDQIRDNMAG
Chain of JAK1 (P23458 whole entry, species assumed): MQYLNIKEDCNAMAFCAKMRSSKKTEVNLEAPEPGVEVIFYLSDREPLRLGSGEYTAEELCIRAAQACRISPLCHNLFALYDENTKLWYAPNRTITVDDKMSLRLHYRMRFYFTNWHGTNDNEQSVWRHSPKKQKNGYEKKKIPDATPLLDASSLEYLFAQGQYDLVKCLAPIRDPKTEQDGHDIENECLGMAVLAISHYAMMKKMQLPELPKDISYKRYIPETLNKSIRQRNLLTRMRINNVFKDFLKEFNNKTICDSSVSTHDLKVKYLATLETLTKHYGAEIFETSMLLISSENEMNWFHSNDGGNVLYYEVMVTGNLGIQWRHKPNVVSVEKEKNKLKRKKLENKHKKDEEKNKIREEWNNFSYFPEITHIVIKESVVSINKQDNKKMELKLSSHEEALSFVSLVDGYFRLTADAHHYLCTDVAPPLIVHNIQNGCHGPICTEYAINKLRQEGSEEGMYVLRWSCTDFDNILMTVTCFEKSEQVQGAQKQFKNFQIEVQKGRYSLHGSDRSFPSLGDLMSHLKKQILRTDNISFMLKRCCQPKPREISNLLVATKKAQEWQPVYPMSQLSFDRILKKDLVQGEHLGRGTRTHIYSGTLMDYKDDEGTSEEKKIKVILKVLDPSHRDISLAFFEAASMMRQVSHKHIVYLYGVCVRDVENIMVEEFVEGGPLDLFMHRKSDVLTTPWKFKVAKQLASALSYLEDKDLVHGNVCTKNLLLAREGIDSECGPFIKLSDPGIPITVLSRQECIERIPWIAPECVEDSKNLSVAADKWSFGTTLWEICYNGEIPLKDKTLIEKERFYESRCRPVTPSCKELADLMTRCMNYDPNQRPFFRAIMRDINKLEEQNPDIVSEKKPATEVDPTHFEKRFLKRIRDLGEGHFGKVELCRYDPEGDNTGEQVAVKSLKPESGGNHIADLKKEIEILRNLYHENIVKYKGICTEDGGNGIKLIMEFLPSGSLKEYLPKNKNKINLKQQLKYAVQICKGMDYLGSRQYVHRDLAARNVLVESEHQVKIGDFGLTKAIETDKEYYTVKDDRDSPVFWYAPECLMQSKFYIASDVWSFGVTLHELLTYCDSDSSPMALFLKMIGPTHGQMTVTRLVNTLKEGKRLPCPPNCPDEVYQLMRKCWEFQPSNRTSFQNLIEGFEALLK

Row | SMILES | IC50 [1] [nM] | IC50 [2] [nM] | IC50 [3] [nM]
1 | CCS(=O)(=O)N1CC(CC#N)(n2cc(-c3nc(Nc4cnn(C5CCOCC5)c4)nc4ccsc34)cn2)C1 [Compound T-38, 2-(1-(Ethylsulfonyl)-3-(4-(2-((1-(tetrahydro-2H-pyran-4-yl)-1H-pyrazol-4-yl)amino)thieno[3,2-d]pyrimidin-4-yl)-1H-pyrazol-1-yl)azetidin-3-yl)acetonitrile] | < 50 | < 50 | < 50
2 | CCS(=O)(=O)N1CC(CC#N)(n2cc(-c3nc(Nc4cnn(C5COC5)c4)nc4ccsc34)cn2)C1 [Compound T-39, 2-(1-(Ethylsulfonyl)-3-(4-(2-((1-(oxetan-3-yl)-1H-pyrazol-4-yl)amino)thieno[3,2-d]pyrimidin-4-yl)-1H-pyrazol-1-yl)azetidin-3-yl)acetonitrile] | < 50 | < 50 | 50 to 500
3 | CCn1cc(Nc2nc(-c3cnn(C4(CC#N)CN(S(=O)(=O)CC)C4)c3)c3sccc3n2)cn1 [Compound T-40, 2-(3-(4-(2-((1-Ethyl-1H-pyrazol-4-yl)amino)thieno[3,2-d]pyrimidin-4-yl)-1H-pyrazol-1-yl)-1-(ethylsulfonyl)azetidin-3-yl)acetonitrile] | < 50 | < 50 | < 50
4 | CCS(=O)(=O)N1CC(CC#N)(n2cc(-c3nc(Nc4cnn(C(C)C)c4)nc4ccsc34)cn2)C1 [Compound T-41, 2-(1-(Ethylsulfonyl)-3-(4-(2-((1-isopropyl-1H-pyrazol-4-yl)amino)thieno[3,2-d]pyrimidin-4-yl)-1H-pyrazol-1-yl)azetidin-3-yl)acetonitrile] | < 50 | < 50 | < 50
5 | Cn1cc(Nc2nc(-c3cnn(C4(CC#N)COC4)c3)c3ccsc3n2)cn1 [Compound T-42, 2-(3-(4-(2-((1-Methyl-1H-pyrazol-4-yl)amino)thieno[2,3-d]pyrimidin-4-yl)-1H-pyrazol-1-yl)oxetan-3-yl)acetonitrile] | 50 to 500 | > 1000 | 500 to 1000
6 | Cn1cc(Nc2nc(-c3cnn(C4(CC#N)COC4)c3)c3sccc3n2)cn1 [Compound T-43, 2-(3-(4-(2-((1-Methyl-1H-pyrazol-4-yl)amino)thieno[3,2-d]pyrimidin-4-yl)-1H-pyrazol-1-yl)oxetan-3-yl)acetonitrile] | < 50 | 50 to 500 | 50 to 500
7 | Cn1cc(Nc2nc(-c3cnn(C4(CC#N)CCOCC4)c3)c3sccc3n2)cn1 [Compound T-44, 2-(4-(4-(2-((1-Methyl-1H-pyrazol-4-yl)amino)thieno[3,2-d]pyrimidin-4-yl)-1H-pyrazol-1-yl)tetrahydro-2H-pyran-4-yl)acetonitrile] | < 50 | 50 to 500 | 50 to 500
8 | CCS(=O)(=O)N1CC(CC#N)(n2cc(-c3nc(Nc4ccc(-c5nn[nH]n5)cc4)nc4ccsc34)cn2)C1 [Compound T-45, 2-(3-(4-(2-((4-(2H-Tetrazol-5-yl)phenyl)amino)thieno[3,2-d]pyrimidin-4-yl)-1H-pyrazol-1-yl)-1-(ethylsulfonyl)azetidin-3-yl)acetonitrile] | < 50 | 50 to 500 | < 50
9 | CCC(=O)N1CC(CC#N)(n2cc(-c3nc(Nc4cnn(C)c4)nc4ccsc34)cn2)C1 [Compound T-46, 2-(3-(4-(2-((1-Methyl-1H-pyrazol-4-yl)amino)thieno[3,2-d]pyrimidin-4-yl)-1H-pyrazol-1-yl)-1-propionylazetidin-3-yl)acetonitrile] | < 50 | 500 to 1000 | 50 to 500
10 | CCS(=O)(=O)N1CC(CC#N)(n2cc(-c3nc(Nc4ccnnc4)nc4ccsc34)cn2)C1 [Compound T-47, 2-(1-(Ethylsulfonyl)-3-(4-(2-(pyridazin-4-ylamino)thieno[3,2-d]pyrimidin-4-yl)-1H-pyrazol-1-yl)azetidin-3-yl)acetonitrile] | 500 to 1000 | > 1000 | 500 to 1000
11 | CCS(=O)(=O)N1CC(CC#N)(n2cc(-c3nc(Nc4cn(C)cn4)nc4ccsc34)cn2)C1 [Compound T-48, 2-(1-(Ethylsulfonyl)-3-(4-(2-((1-methyl-1H-imidazol-4-yl)amino)thieno[3,2-d]pyrimidin-4-yl)-1H-pyrazol-1-yl)azetidin-3-yl)acetonitrile] | 50 to 500 | > 1000 | > 1000
12 | Cn1cc(Nc2nc(-c3cnn(C4(CC#N)CN(C(=O)CO)C4)c3)c3sccc3n2)cn1 [Compound T-49, 2-(1-(2-Hydroxyacetyl)-3-(4-(2-((1-methyl-1H-pyrazol-4-yl)amino)thieno[3,2-d]pyrimidin-4-yl)-1H-pyrazol-1-yl)azetidin-3-yl)acetonitrile] | < 50 | 500 to 1000 | 500 to 1000
13 | N#CCC1(n2cc(-c3nc(Nc4cnn(CCN5CCOCC5)c4)nc4ccsc34)cn2)CCOCC1 [Compound T-50, 2-(4-(4-(2-((1-(2-Morpholinoethyl)-1H-pyrazol-4-yl)amino)thieno[3,2-d]pyrimidin-4-yl)-1H-pyrazol-1-yl)tetrahydro-2H-pyran-4-yl)acetonitrile] | < 50 | 500 to 1000 | 500 to 1000
14 | CCS(=O)(=O)N1CC(CC#N)(n2cc(-c3nc(Nc4cnn(CCO)c4)nc4ccsc34)cn2)C1 [Compound T-51, 2-(1-(Ethylsulfonyl)-3-(4-(2-((1-(2-hydroxyethyl)-1H-pyrazol-4-yl)amino)thieno[3,2-d]pyrimidin-4-yl)-1H-pyrazol-1-yl)azetidin-3-yl)acetonitrile] | < 50 | < 50 | < 50
15 | CCS(=O)(=O)N1CC(CC#N)(n2cc(-c3nc(Nc4cnn(C(C)=O)c4)nc4ccsc34)cn2)C1 [Compound T-52, 2-(3-(4-(2-((1-Acetyl-1H-pyrazol-4-yl)amino)thieno[3,2-d]pyrimidin-4-yl)-1H-pyrazol-1-yl)-1-(ethylsulfonyl)azetidin-3-yl)acetonitrile] | < 50 | 50 to 500 | < 50
16 | CCS(=O)(=O)N1CC(CC#N)(n2cc(-c3nc(Nc4cnn(CCN5CCOCC5)c4)nc4ccsc34)cn2)C1 [Compound T-53, 2-(1-(Ethylsulfonyl)-3-(4-(2-((1-(2-morpholinoethyl)-1H-pyrazol-4-yl)amino)thieno[3,2-d]pyrimidin-4-yl)-1H-pyrazol-1-yl)azetidin-3-yl)acetonitrile] | < 50 | < 50 | 50 to 500
17 | CCS(=O)(=O)N1CC(CC#N)(n2cc(-c3nc(Nc4cnn(C5CN(C)C5)c4)nc4ccsc34)cn2)C1 [Compound T-54, 2-(1-(Ethylsulfonyl)-3-(4-(2-((1-(1-methylazetidin-3-yl)-1H-pyrazol-4-yl)amino)thieno[3,2-d]pyrimidin-4-yl)-1H-pyrazol-1-yl)azetidin-3-yl)acetonitrile] | < 50 | 50 to 500 | 50 to 500
